Source: patent US20150105252A1, “SUBSTITUTED PYRAZOLES AS HERBICIDES” (E I DU PONT DE NEMOURS AND COMPANY, priority 2013, published 2015)

Legend:
barnyardgrass [1] = assay: Test B flood; format: in vivo, Echinochloa crus-galli; settings: 250 g ai/ha, visual rating on 0 to 100 scale (0 no effect, 100 complete control), 13 to 15 days
Procedure, shortened: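 At two leaves, seedlings received the test compound via the paddy water, pots having been flooded 3 cm over the soil surface and kept so. Greenhouse-held for 13 to 15 days, then judged by eye against controls on a scale running 0 (no effect) to 100 (complete control).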

wheat [2] = assay: Test C preemergence; format: in vivo, Triticum aestivum; settings: for Wheat plant response rating / Plant response rating, Wheat: preemergence; for Plant response rating, Wheat: 125 g ai/ha, scale 0 to 100, 0 = no effect, 100 = complete control
Procedure, shortened: (§1)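 Visual rating, 0–100 scale (0 no effect, 100 complete control), vs untreated controls after 13–15 d greenhouse. Pre: seeds in loam/sand, treated at sowing. Post: plants in peat-based mix, 1- to 4-leaf (2–18 cm). Solvent + surfactant formulation, non-phytotoxic.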

lambsquarters [3] = assay: Test C preemergence; format: in vivo, Chenopodium album; settings: for Lambsquarters plant response rating / Plant response rating, Lambsquarters: preemergence; for Plant response rating, Lambsquarters: 125 g ai/ha, scale 0 to 100, 0 = no effect, 100 = complete control
Procedure, shortened: as §1

velvetleaf = assay: Test C preemergence; format: in vivo, Abutilon theophrasti; settings: for Velvetleaf plant response rating / Plant response rating, Velvetleaf: preemergence; for Plant response rating, Velvetleaf: 125 g ai/ha, scale 0 to 100, 0 = no effect, 100 = complete control
Procedure, shortened: as §1

wheat [4] = assay: Test C postemergence; format: in vivo, Triticum aestivum; settings: for Plant response rating (scale of 0 to 100 where 0 is no effect and 100 is complete control), Wheat: Postemergence, 31 g ai/ha, visually evaluated after 13 to 15 days; for Wheat plant response rating / Plant response rating, Wheat: postemergence; for Wheat plant response rating: scale 0 to 100
Procedure, shortened: as §1

corn = assay: Test C postemergence; format: in vivo, Zea mays; settings: for Plant response rating (scale of 0 to 100 where 0 is no effect and 100 is complete control), Corn: Postemergence, 31 g ai/ha, visually evaluated after 13 to 15 days; for Corn plant response rating / Plant response rating, Corn: postemergence; for Corn plant response rating: 62 g ai/ha, scale 0 to 100
Procedure, shortened: as §1

foxtail, giant = assay: Test C postemergence; format: in vivo, Setaria faberii; settings: for Plant response rating (scale of 0 to 100 where 0 is no effect and 100 is complete control), Foxtail, Giant: Postemergence, 31 g ai/ha, visually evaluated after 13 to 15 days; for Foxtail, Giant plant response rating / Plant response rating, Foxtail, Giant: postemergence; for Foxtail, Giant plant response rating: 62 g ai/ha, scale 0 to 100
Procedure, shortened: as §1

lambsquarters [5] = assay: Test C postemergence; format: in vivo, Chenopodium album; settings: for Plant response rating (scale of 0 to 100 where 0 is no effect and 100 is complete control), Lambsquarters: Postemergence, 31 g ai/ha, visually evaluated after 13 to 15 days; for Lambsquarters plant response rating / Plant response rating, Lambsquarters: postemergence; for Lambsquarters plant response rating: 62 g ai/ha, scale 0 to 100
Procedure, shortened: as §1

morningglory = assay: Test C postemergence; format: in vivo, Ipomoea coccinea; settings: for Plant response rating (scale of 0 to 100 where 0 is no effect and 100 is complete control), Morningglory: Postemergence, 31 g ai/ha, visually evaluated after 13 to 15 days; for Morningglory plant response rating / Plant response rating, Morningglory: postemergence; for Morningglory plant response rating: 62 g ai/ha, scale 0 to 100
Procedure, shortened: as §1

barnyardgrass [6] = assay: Test C postemergence; format: in vivo, Echinochloa crus-galli; settings: for Plant response rating (scale of 0 to 100 where 0 is no effect and 100 is complete control), Barnyardgrass: Postemergence, 31 g ai/ha, visually evaluated after 13 to 15 days; for Barnyardgrass plant response rating / Plant response rating, Barnyardgrass: postemergence; for Barnyardgrass plant response rating: 62 g ai/ha, scale 0 to 100
Procedure, shortened: as §1

kochia = assay: Test C postemergence; format: in vivo, Kochia scoparia; settings: for Plant response rating (scale of 0 to 100 where 0 is no effect and 100 is complete control), Kochia: Postemergence, 31 g ai/ha, visually evaluated after 13 to 15 days; for Kochia plant response rating / Plant response rating, Kochia: postemergence; for Kochia plant response rating: 62 g ai/ha, scale 0 to 100
Procedure, shortened: as §1

chickweed = assay: Test C postemergence; format: in vivo, Stellaria media; settings: for Plant response rating (scale of 0 to 100 where 0 is no effect and 100 is complete control), Chickweed: Postemergence, 31 g ai/ha, visually evaluated after 13 to 15 days; for Chickweed plant response rating / Plant response rating, Chickweed: postemergence; for Chickweed plant response rating: 62 g ai/ha, scale 0 to 100
Procedure, shortened: as §1

[7] = 31 g ai/ha, visual rating, scale 0 to 100 (0 no effect, 100 complete control), 13 to 15 days
[8] = 62 g ai/ha, scale 0 to 100 (0 no effect, 100 complete control), 13 to 15 days
[9] = 250 g ai/ha, scale 0 to 100, 0 is no effect, 100 is complete control
[10] = 250 g ai/ha, scale 0 to 100 (0 no effect, 100 complete control)
[11] = 125 g ai/ha, scale 0 to 100, 0 no effect, 100 complete control

## CCCNC(=O)c1cc(OCC)n(Cc2ccnc(OC(F)F)c2)n1 [Compound 136]
Barnyardgrass [1]
  Plant response rating, Barnyardgrass: 50
Wheat [2]; [7]
  Wheat plant response rating: 10
Wheat [2]; [8]
  Wheat plant response rating: 65
Wheat [2]; 13 to 15 days
  Plant response rating, Wheat: 95
Wheat [2]; [9]
  Wheat plant response rating: 95
Lambsquarters [3]; [7]
  Lambsquarters plant response rating: 98
Lambsquarters [3]; [8]
  Lambsquarters plant response rating: 98
Lambsquarters [3]; 13 to 15 days
  Plant response rating, Lambsquarters: 98
Lambsquarters [3]; [9]
  Lambsquarters plant response rating: 100
velvetleaf; [7]
  Velvetleaf plant response rating: 65
velvetleaf; [8]
  Velvetleaf plant response rating: 100
velvetleaf; 13 to 15 days
  Plant response rating, Velvetleaf: 100
velvetleaf; [9]
  Velvetleaf plant response rating: 100
Wheat [4]
  Plant response rating (scale of 0 to 100 where 0 is no effect and 100 is complete control), Wheat: 5
Wheat [4]; 62 g ai/ha
  Wheat plant response rating: 5
Wheat [4]; [10]
  Plant response rating, Wheat: 15
Wheat [4]; [11]
  Plant response rating, Wheat: 10
corn
  Plant response rating (scale of 0 to 100 where 0 is no effect and 100 is complete control), Corn: 10
  Corn plant response rating: 10
corn; [10]
  Plant response rating, Corn: 25
corn; [11]
  Plant response rating, Corn: 15
foxtail, giant
  Plant response rating (scale of 0 to 100 where 0 is no effect and 100 is complete control), Foxtail, Giant: 30
  Foxtail, Giant plant response rating: 30
foxtail, giant; [10]
  Plant response rating, Foxtail, Giant: 70
foxtail, giant; [11]
  Plant response rating, Foxtail, Giant: 40
Lambsquarters [5]
  Plant response rating (scale of 0 to 100 where 0 is no effect and 100 is complete control), Lambsquarters: 80
  Lambsquarters plant response rating: 85
Lambsquarters [5]; [10]
  Plant response rating, Lambsquarters: 95
Lambsquarters [5]; [11]
  Plant response rating, Lambsquarters: 98
morningglory
  Plant response rating (scale of 0 to 100 where 0 is no effect and 100 is complete control), Morningglory: 90
  Morningglory plant response rating: 98
morningglory; [10]
  Plant response rating, Morningglory: 100
morningglory; [11]
  Plant response rating, Morningglory: 95
Barnyardgrass [6]
  Plant response rating (scale of 0 to 100 where 0 is no effect and 100 is complete control), Barnyardgrass: 5
  Barnyardgrass plant response rating: 5
Barnyardgrass [6]; [10]
  Plant response rating, Barnyardgrass: 45
Barnyardgrass [6]; [11]
  Plant response rating, Barnyardgrass: 5
kochia
  Plant response rating (scale of 0 to 100 where 0 is no effect and 100 is complete control), Kochia: 90
  Kochia plant response rating: 90
kochia; [10]
  Plant response rating, Kochia: 90
kochia; [11]
  Plant response rating, Kochia: 90
chickweed
  Plant response rating (scale of 0 to 100 where 0 is no effect and 100 is complete control), Chickweed: 100
  Chickweed plant response rating: 100
chickweed; [10]
  Plant response rating, Chickweed: 100
chickweed; [11]
  Plant response rating, Chickweed: 100

## CCOc1cc(C(=O)NCC(F)(F)F)nn1Cc1ccnc(OC(F)F)c1 [Compound 128]
Barnyardgrass [1]
  Plant response rating, Barnyardgrass: 70
Wheat [2]; Preemergence, 250 g ai/ha
  Plant response rating (scale of 0 to 100), Wheat: 85
Wheat [2]; [7]
  Wheat plant response rating: 20
Wheat [2]; [8]
  Wheat plant response rating: 30
Wheat [2]; 13 to 15 days
  Plant response rating, Wheat: 70
Lambsquarters [3]; Preemergence, 250 g ai/ha
  Plant response rating (scale of 0 to 100), Lambsquarters: 98
Lambsquarters [3]; [7]
  Lambsquarters plant response rating: 98
Lambsquarters [3]; [8]
  Lambsquarters plant response rating: 100
Lambsquarters [3]; 13 to 15 days
  Plant response rating, Lambsquarters: 98
velvetleaf; Preemergence, 250 g ai/ha
  Plant response rating (scale of 0 to 100), Velvetleaf: 100
velvetleaf; [7]
  Velvetleaf plant response rating: 5
velvetleaf; [8]
  Velvetleaf plant response rating: 100
velvetleaf; 13 to 15 days
  Plant response rating, Velvetleaf: 100
Wheat [4]
  Plant response rating (scale of 0 to 100 where 0 is no effect and 100 is complete control), Wheat: 5
Wheat [4]; 62 g ai/ha
  Wheat plant response rating: 5
Wheat [4]; [10]
  Plant response rating, Wheat: 5
Wheat [4]; [11]
  Plant response rating, Wheat: 10
corn
  Plant response rating (scale of 0 to 100 where 0 is no effect and 100 is complete control), Corn: 5
  Corn plant response rating: 5
corn; [10]
  Plant response rating, Corn: 30
corn; [11]
  Plant response rating, Corn: 10
foxtail, giant
  Plant response rating (scale of 0 to 100 where 0 is no effect and 100 is complete control), Foxtail, Giant: 5
  Foxtail, Giant plant response rating: 10
foxtail, giant; [10]
  Plant response rating, Foxtail, Giant: 85
foxtail, giant; [11]
  Plant response rating, Foxtail, Giant: 25
Lambsquarters [5]
  Plant response rating (scale of 0 to 100 where 0 is no effect and 100 is complete control), Lambsquarters: 60
  Lambsquarters plant response rating: 80
Lambsquarters [5]; [10]
  Plant response rating, Lambsquarters: 98
Lambsquarters [5]; [11]
  Plant response rating, Lambsquarters: 95
morningglory
  Plant response rating (scale of 0 to 100 where 0 is no effect and 100 is complete control), Morningglory: 75
  Morningglory plant response rating: 65
morningglory; [10]
  Plant response rating, Morningglory: 80
morningglory; [11]
  Plant response rating, Morningglory: 45
Barnyardgrass [6]
  Plant response rating (scale of 0 to 100 where 0 is no effect and 100 is complete control), Barnyardgrass: 5
  Barnyardgrass plant response rating: 5
Barnyardgrass [6]; [10]
  Plant response rating, Barnyardgrass: 60
Barnyardgrass [6]; [11]
  Plant response rating, Barnyardgrass: 15
kochia
  Plant response rating (scale of 0 to 100 where 0 is no effect and 100 is complete control), Kochia: 60
  Kochia plant response rating: 65
kochia; [10]
  Plant response rating, Kochia: 90
kochia; [11]
  Plant response rating, Kochia: 65
chickweed
  Plant response rating (scale of 0 to 100 where 0 is no effect and 100 is complete control), Chickweed: 70
  Chickweed plant response rating: 75
chickweed; [10]
  Plant response rating, Chickweed: 95
chickweed; [11]
  Plant response rating, Chickweed: 85

## CCCc1cc(C(=O)NC2CC2)nn1Cc1ccnc(OC(F)F)c1 [Compound 205]
Barnyardgrass [1]
  Plant response rating, Barnyardgrass: 50
Wheat [2]; [7]
  Wheat plant response rating: 5
Wheat [2]; [8]
  Wheat plant response rating: 15
Wheat [2]; 13 to 15 days
  Plant response rating, Wheat: 85
Wheat [2]; [9]
  Wheat plant response rating: 95
Lambsquarters [3]; [7]
  Lambsquarters plant response rating: 85
Lambsquarters [3]; [8]
  Lambsquarters plant response rating: 95
Lambsquarters [3]; 13 to 15 days
  Plant response rating, Lambsquarters: 100
Lambsquarters [3]; [9]
  Lambsquarters plant response rating: 100
velvetleaf; [7]
  Velvetleaf plant response rating: 55
velvetleaf; [8]
  Velvetleaf plant response rating: 100
velvetleaf; 13 to 15 days
  Plant response rating, Velvetleaf: 100
velvetleaf; [9]
  Velvetleaf plant response rating: 100
Wheat [4]; [10]
  Plant response rating, Wheat: 5
Wheat [4]
  Wheat plant response rating: 5
corn
  Plant response rating (scale of 0 to 100 where 0 is no effect and 100 is complete control), Corn: 10
  Corn plant response rating: 10
corn; [10]
  Plant response rating, Corn: 40
corn; [11]
  Plant response rating, Corn: 20
foxtail, giant
  Plant response rating (scale of 0 to 100 where 0 is no effect and 100 is complete control), Foxtail, Giant: 20
  Foxtail, Giant plant response rating: 35
foxtail, giant; [10]
  Plant response rating, Foxtail, Giant: 65
foxtail, giant; [11]
  Plant response rating, Foxtail, Giant: 70
Lambsquarters [5]
  Plant response rating (scale of 0 to 100 where 0 is no effect and 100 is complete control), Lambsquarters: 85
  Lambsquarters plant response rating: 85
Lambsquarters [5]; [10]
  Plant response rating, Lambsquarters: 85
Lambsquarters [5]; [11]
  Plant response rating, Lambsquarters: 90
morningglory
  Plant response rating (scale of 0 to 100 where 0 is no effect and 100 is complete control), Morningglory: 65
  Morningglory plant response rating: 70
morningglory; [10]
  Plant response rating, Morningglory: 95
morningglory; [11]
  Plant response rating, Morningglory: 80
Barnyardgrass [6]
  Plant response rating (scale of 0 to 100 where 0 is no effect and 100 is complete control), Barnyardgrass: 10
  Barnyardgrass plant response rating: 10
Barnyardgrass [6]; [10]
  Plant response rating, Barnyardgrass: 50
Barnyardgrass [6]; [11]
  Plant response rating, Barnyardgrass: 15
kochia
  Plant response rating (scale of 0 to 100 where 0 is no effect and 100 is complete control), Kochia: 85
  Kochia plant response rating: 90
kochia; [10]
  Plant response rating, Kochia: 95
kochia; [11]
  Plant response rating, Kochia: 95
chickweed
  Plant response rating (scale of 0 to 100 where 0 is no effect and 100 is complete control), Chickweed: 65
  Chickweed plant response rating: 90
chickweed; [10]
  Plant response rating, Chickweed: 100
chickweed; [11]
  Plant response rating, Chickweed: 98
